Results as given in patent US10065957B2, “Beta-lactamase inhibitors” (Novartis AG, priority 2016, dated 2018).
≈ marks a conversion by molar mass, not a printed value.

Assays:
Type in all cases: cell-based
E. coli ATCC 25922 = experiment: MIC by broth microdilution, BLI alone; settings: Escherichia coli, ATCC25922, read-out: Minimal Inhibitory Concentrations (MIC) of selected BLIs
Protocol: (§1) MICs were determined by the broth microdilution method in accordance with Clinical and Laboratories Institute (CLSI) guidelines. In brief, fresh overnight bacterial cultures were suspended in sterile saline, and adjusted to a 0.5 McFarland turbidity standard. Bacterial suspensions were then diluted in cation adjusted Mueller-Hinton Broth (MHB II; BBL) to yield a final inoculum of approximately 5×10^5 colony-forming units (CFU)/mL. A master plate of antibiotics was prepared at a concentration equivalent to hundred-fold the highest desired final concentration in 100% dimethyl sulfoxide (DMSO). The master antibiotic plate was then diluted by serial twofold dilution with a multichannel pipette. The resulting dilution series of compounds were diluted 1:10 with sterile water or a solution of beta-lactamase inhibitor prepared at a concentration equivalent to eleven-fold the desired final concentration in deionized water leading to a 10% DMSO final concentration. A volume of 10 μL of the drug dilution series was transferred to 96-well assay plates. Assay plates were inoculated with 90 μL of bacterial suspensions and incubated at 35° C. for 20 hrs. The assay plates were read using a microtiter plate reader (Molecular Devices) at 600 nm as well as by visual observation with a reading mirror. The lowest concentration of the compound that prevented visible growth was recorded as the MIC. Performance of the assay was monitored by testing aztreonam against laboratory quality control strains in accordance with guidelines of the CLSI.

P. aeruginosa ATCC 27853 = experiment: MIC by broth microdilution, BLI alone; settings: Pseudomonas aeruginosa, ATCC27853, read-out: Minimal Inhibitory Concentrations (MIC) of selected BLIs
Protocol: as §1

K. pneumoniae ATCC 43816 = experiment: MIC by broth microdilution, BLI alone; settings: Klebsiella pneumoniae, ATCC43816, read-out: Minimal Inhibitory Concentrations (MIC) of selected BLIs
Protocol: as §1

E. coli (AmpC) = experiment: microbe, parasite or virus in culture; settings: for MIC of aztreonam with beta-lactamase inhibitor: AZ + BLI at 2 μg/mL; for Activity of Beta-Lactam 5 with beta-lactamase inhibitor: Beta-Lactam 5 + BLI at 2 μg/mL; for MIC of ceftazidime with beta-lactamase inhibitor: Ceft + BLI at 2 μg/mL; for MIC of meropenem with beta-lactamase inhibitor: Mero + BLI at 2 μg/mL
Protocol: as §1
(§2) Synergy or potentiation of beta-lactam antibiotics through inhibition of Q-lactamases was assessed against an isogenic panel of E. coli strains, each expressing a unique beta-lactamase, and against clinical strains.
The gene encoding AmpC was PCR amplified from the genome of strain P. aeruginosa PAO1 (NB52019) (GenBank ID U5R279) using primer pair E252 (gccCTCGAGggcgaggccccggcggatcgc) (SEQ ID NO: 17) and E253 (tgaGAATTCtcagcgcttcagcggcacct) (SEQ ID NO: 18).
The PCR products were then digested with XhoI and EcoRI and ligated into similarly digested plasmid pAH63-pstS(BlaP). Plasmid pAH63-pstS(BlaP) is a derivative of plasmid pAH63 (J Bacteriol: 183(21): 6384-6393) made by cloning the TEM-1 (bla) promoter and signal peptide encoding region from plasmid pBAD (J Bacteriol. 1995 July 177(14):4121-30) into plasmid pAH63. This fragment was PCR amplified from pBAD using primer pair E192 (ttcaCTGCAGtgaacgttgcgaagcaacggC) (SEQ ID NO:19) and E194 (TCGAggatcctcgagagcaaaaacaggaaggcaaaatgccg) (SEQ ID NO:20), digested with PstI and BamHI and inserted into similarly digested plasmid pAH63. Therefore, expression of beta-lactamases from pAH63-pstS(BlaP) based constructs is constitutive and the signal sequence is provided to direct these proteins to the periplasm. Plasmid pAH63 based vectors are used for insertion into the genome in single copy, however, to provide higher expression levels to allow more sensitive detection of the susceptibility of compounds to the expressed beta-lactamases, the expression inserts contained in these vectors were moved to the replicative multicopy vector pBAD-Kan (J Bacteriol. 1995 July 177(14):4121-30). To accomplish this, the inserts encompassing the beta-lactamase genes, with the associated TEM promoter and signal sequences, were PCR amplified from their corresponding vectors using primer E268 (ccgTCTAGAcggatggcctttttgcgtttc) (SEQ ID NO:21) and E202 (aatcGAATTCttactgaccattaacgcccaagc) (SEQ ID NO:22) for the KPC2 construct, E204 (aatcGAATTCttaacgctgccagtgctcaatc) (SEQ ID NO:23) for the SHV-12 construct and E203 (aatcGAATTCttacagaccgtcggtgacaatc) (SEQ ID NO:24) for the CTX-M-15 construct. These fragments were then digested with XbaI and EcoRI, and each was inserted into pBAD18-kan that had been digested with the same enzymes to generate multicopy vectors expressing KPC-2, SHV-12 and CTX-M-15, respectively. […]

E. coli (TEM-10) = experiment: microbe, parasite or virus in culture; settings: for MIC of aztreonam with beta-lactamase inhibitor: AZ + BLI at 2 μg/mL; for Activity of Beta-Lactam 5 with beta-lactamase inhibitor: Beta-Lactam 5 + BLI at 2 μg/mL; for MIC of ceftazidime with beta-lactamase inhibitor: Ceft + BLI at 2 μg/mL; for MIC of meropenem with beta-lactamase inhibitor: Mero + BLI at 2 μg/mL
Protocol: as §1, with “MIC.” for “MIC. Performance of the assay was monitored by testing aztreonam against laboratory quality control strains in accordance with guidelines of the CLSI.”
as §2
Construction of E. coli isogenic strains, NB27273-CDY0105 (OXA-18) and NB27273-CDY0048 (TEM-10). […] The gene encoding OXA-18 was then digested with XhoI and EcoRI and inserted into this vector, from which the gene for GIM-1 had been removed with XhoI and EcoRI.
From this template DNA, three fragments were generated by PCR using the following primer pairs;
This fragment was then digested with XbaI and EcoRI and inserted into pBAD-kan which was also cut with the same enzymes.
These final vectors for expression of OXA-18 and TEM-10 were transformed into BW25113 pspB to generate strains NB27273-CDY0105 (expressing OXA-18) and NB27273-CDY0048 (expressing TEM-10).

Row | SMILES | MIC (E. coli ATCC 25922) [µg/mL] | MIC (P. aeruginosa ATCC 27853) [µg/mL] | MIC (K. pneumoniae ATCC 43816) [µg/mL] | MIC of aztreonam with beta-lactamase inhibitor (E. coli (AmpC)) [µg/mL] | Activity of Beta-Lactam 5 with beta-lactamase inhibitor (E. coli (AmpC)) [µg/mL] | MIC of ceftazidime with beta-lactamase inhibitor (E. coli (AmpC)) [µg/mL] | MIC of meropenem with beta-lactamase inhibitor (E. coli (AmpC)) [µg/mL] | MIC of aztreonam with beta-lactamase inhibitor (E. coli (TEM-10)) [µg/mL] | Activity of Beta-Lactam 5 with beta-lactamase inhibitor (E. coli (TEM-10)) [µg/mL] | MIC of ceftazidime with beta-lactamase inhibitor (E. coli (TEM-10)) [µg/mL] | MIC of meropenem with beta-lactamase inhibitor (E. coli (TEM-10)) [µg/mL]
1 | NC(=O)[C@@H]1CC[C@@H]2CN1C(=O)N2OS(=O)(=O)O [Avibactam] | 16 (≈ 60.3 µM) | > 64 | 32 (≈ 121 µM) | ≤0.06 | 0.125 | 0.125 | ≤0.06 | 0.25 | 0.125 | 1 | ≤0.06
2 | O=C1NC[C@@H]2C[C@@H]3CN(C(=O)N3OS(=O)(=O)[O-])[C@H]12.[Na+] [Example 1, Sodium (4R,5aS,8aS)-2,8-dioxohexahydro-2H-1,4-methanopyrrolo[3,4-d][1,3]diazepin-3(4H)-yl sulfate] | > 64 | > 64 | > 64 | 0.125 | 0.25 | 0.25 | ≤0.06 | 0.125 | 0.125 | 0.25 | ≤0.06
3 | O=C(NC1CCNCC1)[C@@H]1CC[C@@H]2CN1C(=O)N2OS(=O)(=O)O [Relebactam] | > 64 | > 64 | > 64 | 0.125 | 0.25 | 0.125 | ≤0.06 | 2 | 0.25 | 8 | ≤0.06
